Results published in ChEMBL document CHEMBL1949526, “Cyclic hydroxyamidines as amide isosteres: discovery of oxadiazolines and oxadiazines as potent and highly efficacious γ-secretase modulators in vivo” (J Med Chem, 2012).

Key:
Gamma-secretase [1] = test: Modulation of gamma-secretase-mediated cleavage of human APP Swedish and London mutation expressed in HEK293 cells assessed as inhibition of amyloid beta42 production after 5 hrs by sandwich immunoassay; type: cell-based
Gamma-secretase [2] = test: Modulation of gamma-secretase-mediated cleavage of human APP Swedish and London mutation expressed in HEK293 cells assessed as reduction of total amyloid beta level after 5 hrs by sandwich immunoassay; type: cell-based
[3] = Dissociation constant, pKa of the compound; type: physicochemical
[4] = target: Voltage-gated inwardly rectifying potassium channel KCNH2 (Homo sapiens, UniProt Q12809); test: Inhibition of human ERG by cell based voltage clamp assay
Voltage-gated inwardly rectifying potassium channel KCNH2, sequence (Q12809 whole entry): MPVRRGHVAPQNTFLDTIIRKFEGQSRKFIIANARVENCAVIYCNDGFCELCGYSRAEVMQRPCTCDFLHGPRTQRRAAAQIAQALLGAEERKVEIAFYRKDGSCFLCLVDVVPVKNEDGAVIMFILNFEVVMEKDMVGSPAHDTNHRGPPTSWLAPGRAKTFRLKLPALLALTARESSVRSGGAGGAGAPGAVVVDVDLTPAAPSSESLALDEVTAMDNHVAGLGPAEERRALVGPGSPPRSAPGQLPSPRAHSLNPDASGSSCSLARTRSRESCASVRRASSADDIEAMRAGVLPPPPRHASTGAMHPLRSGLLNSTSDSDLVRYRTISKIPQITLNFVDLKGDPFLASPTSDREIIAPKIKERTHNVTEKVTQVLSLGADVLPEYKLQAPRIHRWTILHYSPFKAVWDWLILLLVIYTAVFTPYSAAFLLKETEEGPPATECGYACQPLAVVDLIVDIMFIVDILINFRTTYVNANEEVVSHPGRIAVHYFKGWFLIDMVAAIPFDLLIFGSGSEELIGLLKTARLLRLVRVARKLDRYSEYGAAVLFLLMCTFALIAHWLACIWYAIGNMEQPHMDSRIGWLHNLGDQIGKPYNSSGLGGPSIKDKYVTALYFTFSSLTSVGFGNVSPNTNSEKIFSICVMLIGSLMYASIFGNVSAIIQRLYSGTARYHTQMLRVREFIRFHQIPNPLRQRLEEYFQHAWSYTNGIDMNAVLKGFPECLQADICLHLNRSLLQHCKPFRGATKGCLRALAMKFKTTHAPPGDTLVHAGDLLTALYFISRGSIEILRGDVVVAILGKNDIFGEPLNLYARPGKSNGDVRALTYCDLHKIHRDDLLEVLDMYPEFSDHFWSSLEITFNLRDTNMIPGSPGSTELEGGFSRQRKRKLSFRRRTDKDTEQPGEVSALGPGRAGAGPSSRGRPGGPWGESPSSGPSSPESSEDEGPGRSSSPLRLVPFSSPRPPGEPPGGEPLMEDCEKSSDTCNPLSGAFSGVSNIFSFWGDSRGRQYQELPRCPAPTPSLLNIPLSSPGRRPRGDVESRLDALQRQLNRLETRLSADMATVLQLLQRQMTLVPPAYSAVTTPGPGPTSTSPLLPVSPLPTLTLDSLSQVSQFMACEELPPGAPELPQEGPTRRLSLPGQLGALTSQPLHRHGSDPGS

Gamma-secretase [5] = test: Modulation of gamma-secretase-mediated cleavage of human APP Swedish and London mutation expressed in HEK293 cells assessed as inhibition of amyloid beta40 production after 5 hrs by sandwich immunoassay; type: cell-based
Gamma-secretase [6] = test: Modulation of gamma-secretase-mediated notch signaling in HEK293 cells transfected with human APP Swedish and London mutation and Notch1 with truncated extracellular EGF repeat domain assessed as production of notch intracellular domain by MSD-based sandwich immunoassay; type: cell-based
[7] = Permeability from apical to basolateral side of human Caco2 cells; type: ADME, cell-based; settings: Caco-2, read-out: permeability
[8] = Efflux ratio of permeability from basolateral to apical side over apical to basolateral side in human Caco2 cells; type: ADME, cell-based; settings: Caco-2
[9] = AUC in rat at 10 mg/kg, po; type: ADME, organism-based, Plasma; set-up: dose 10 mg/kg, route oral; settings: plasma
[10] = Cmax in rat at 10 mg/kg, po; type: ADME, organism-based; set-up: dose 10 mg/kg, route oral; settings: in vivo
[11] = Oral bioavailability in rat at 10 mg/kg; type: ADME, organism-based; settings: in vivo
[12] = Half life in rat at 3 mg/kg, iv; type: ADME, organism-based; set-up: dose 3 mg/kg, route intravenous; settings: in vivo
[13] = Volume of distribution at steady state in rat at 3 mg/kg, iv; type: ADME, organism-based; set-up: dose 3 mg/kg, route intravenous; settings: in vivo, read-out: Vdss
[14] = Clearance in rat at 3 mg/kg, iv; type: ADME, organism-based; set-up: dose 3 mg/kg, route intravenous; settings: in vivo
[15] = AUC in dog at 10 mg/kg, po; type: ADME, organism-based, Canis lupus familiaris, Plasma; set-up: dose 10 mg/kg, route oral; settings: plasma
[16] = Cmax in dog at 10 mg/kg, po; type: ADME, organism-based, Canis lupus familiaris; set-up: dose 10 mg/kg, route oral; settings: in vivo
[17] = Oral bioavailability in dog at 10 mg/kg; type: ADME, organism-based, Canis lupus familiaris; settings: in vivo
[18] = Half life in dog at 3 mg/kg, iv; type: ADME, organism-based, Canis lupus familiaris; set-up: dose 3 mg/kg, route intravenous; settings: in vivo
[19] = Volume of distribution at steady state in dog at 3 mg/kg, iv; type: ADME, organism-based, Canis lupus familiaris; set-up: dose 3 mg/kg, route intravenous; settings: in vivo, read-out: Vdss
[20] = Clearance in dog at 3 mg/kg, iv; type: ADME, organism-based, Canis lupus familiaris; set-up: dose 3 mg/kg, route intravenous; settings: in vivo
[21] = AUC in monkey at 10 mg/kg, po; type: ADME, organism-based, Macaca mulatta; set-up: dose 10 mg/kg, route oral; settings: rhesus monkey, plasma
[22] = Cmax in monkey at 10 mg/kg, po; type: ADME, organism-based, Macaca mulatta; set-up: dose 10 mg/kg, route oral; settings: rhesus monkey, in vivo
[23] = Oral bioavailability in monkey at 10 mg/kg; type: ADME, organism-based, Macaca mulatta; settings: rhesus monkey, in vivo
[24] = Half life in monkey at 3 mg/kg, iv; type: ADME, organism-based, Macaca mulatta; set-up: dose 3 mg/kg, route intravenous; settings: rhesus monkey, in vivo
[25] = Volume of distribution at steady state in monkey at 3 mg/kg, iv; type: ADME, organism-based, Macaca mulatta; set-up: dose 3 mg/kg, route intravenous; settings: rhesus monkey, in vivo, read-out: Vdss
[26] = Clearance in monkey at 3 mg/kg, iv; type: ADME, organism-based, Macaca mulatta; set-up: dose 3 mg/kg, route intravenous; settings: rhesus monkey, in vivo
Canis familiaris = organism: Canis familiaris; test: Cardiotoxicity in dog assessed as effect on electrocardiographic QTc interval at compound concentration required for pharmacological effect; type: toxicity, organism-based, Canis lupus familiaris; settings: in vivo
Rattus norvegicus [27] = organism: Rattus norvegicus; test: Toxicity in rat assessed as production of goblet cell meta/hyperplasia in ileum at highest tolerable dose; type: organism-based; settings: in vivo
Rattus norvegicus [28] = organism: Rattus norvegicus; test: Toxicity in rat assessed as decrease in thymus size at highest tolerable dose; type: organism-based; settings: in vivo
Rattus norvegicus [29] = organism: Rattus norvegicus; test: Toxicity in rat assessed as decrease in body weight at highest tolerable dose; type: organism-based; settings: in vivo
Rattus norvegicus [30] = organism: Rattus norvegicus; test: Toxicity in rat assessed as effect on HES-1 expression in jejunum at highest tolerable dose; type: organism-based; settings: in vivo
Rattus norvegicus [31] = organism: Rattus norvegicus; test: Toxicity in rat assessed as effect on adipsin expression in jejunum at highest tolerable dose; type: organism-based; settings: in vivo
Rattus norvegicus [32] = test: Antialzheimer activity in CD rat assessed as reduction in amyloid beta42 level in CSF at 3 mg/kg, po after 3 hrs by alphaLISA analysis; type: functional; set-up: scale not given: the % may be the effect or the level left
Rattus norvegicus [33] = test: Antialzheimer activity in CD rat assessed as reduction in amyloid beta40 level in CSF at 3 mg/kg, po after 3 hrs by alphaLISA analysis; type: functional; set-up: scale not given: the % may be the effect or the level left
Rattus norvegicus [34] = test: Antialzheimer activity in CD rat assessed as reduction in total amyloid beta level in CSF at 3 mg/kg, po after 3 hrs by alphaLISA analysis; type: functional; set-up: scale not given: the % may be the effect or the level left
Rattus norvegicus [35] = test: Antialzheimer activity in CD rat assessed as reduction in amyloid beta42 level in cortex at 3 mg/kg, po after 3 hrs by alphaLISA analysis; type: functional; set-up: scale not given: the % may be the effect or the level left
Rattus norvegicus [36] = test: Antialzheimer activity in CD rat assessed as reduction in amyloid beta40 level in cortex at 3 mg/kg, po after 3 hrs by alphaLISA analysis; type: functional; set-up: scale not given: the % may be the effect or the level left
Rattus norvegicus [37] = test: Antialzheimer activity in CD rat assessed as reduction in amyloid beta42 level in plasma at 3 mg/kg, po after 3 hrs by alphaLISA analysis; type: functional; set-up: scale not given: the % may be the effect or the level left
Rattus norvegicus [38] = test: Antialzheimer activity in CD rat assessed as reduction in amyloid beta40 level in plasma at 3 mg/kg, po after 3 hrs by alphaLISA analysis; type: functional; set-up: scale not given: the % may be the effect or the level left
Rattus norvegicus [39] = test: Antialzheimer activity in CD rat assessed as reduction in total amyloid beta level in plasma at 3 mg/kg, po after 3 hrs by alphaLISA analysis; type: functional; set-up: scale not given: the % may be the effect or the level left
Cynomolgus monkey [40] = test: Antialzheimer activity in cynomolgus monkey assessed as reduction in amyloid beta42 level in cortex at 30 mg/kg, po after 4 hrs by alphaLISA analysis; type: functional, Macaca fascicularis; set-up: scale not given: the % may be the effect or the level left
Cynomolgus monkey [41] = test: Antialzheimer activity in cynomolgus monkey assessed as reduction in amyloid beta42 level in CSF at 30 mg/kg, po after 4 hrs by alphaLISA analysis; type: functional, Macaca fascicularis; set-up: scale not given: the % may be the effect or the level left
[42] = Plasma concentration in cynomolgus monkey at 30 mg/kg, po after 4 hrs; type: ADME, organism-based, Macaca fascicularis; set-up: dose 30 mg/kg, route oral
[43] = Ratio of drug level in brain to plasma in cynomolgus monkey at 30 mg/kg, po after 4 hrs; type: ADME, organism-based, Macaca fascicularis; set-up: dose 30 mg/kg, route oral; settings: read-out: BPR
[44] = Plasma concentration in CD rat at 3 mg/kg, po after 3 hrs; type: ADME, organism-based; set-up: dose 3 mg/kg, route oral
[45] = Ratio of drug level in brain to plasma in CD rat at 3 mg/kg, po after 3 hrs; type: ADME, organism-based; set-up: dose 3 mg/kg, route oral; settings: read-out: BPR

IC50 (Gamma-secretase [1]): 33 nM
IC50 (Gamma-secretase [2]): > 20000 nM
pKa [3]: 2.7
IC50 (Gamma-secretase [5]): 123 nM
IC50 (Gamma-secretase [6]): > 50000 nM
Papp A→B [7]: 24.6 ×10⁻⁶ cm/s
efflux ratio [8]: 2
AUC [9]: 265 µM·h
Cmax [10]: 19.8 µM
bioavailability [11]: 100%
half-life [12]: 210 min
Vd [13]: 0.4 L/kg
clearance [14]: 1.4 mL/min/kg
AUC [15]: 27 µM·h
Cmax [16]: 7.9 µM
bioavailability [17]: 69%
half-life [18]: 48 min
Vd [19]: 0.6 L/kg
clearance [20]: 9 mL/min/kg
AUC [21]: 11 µM·h
Cmax [22]: 4.9 µM
bioavailability [23]: 34%
half-life [24]: 54 min
Vd [25]: 0.8 L/kg
clearance [26]: 11 mL/min/kg
concentration at 4 h [42]: 6 µM
Kp at 4 h [43]: 1.4
concentration at 3 h [44]: 3 µM
Kp at 3 h [45]: 0.49
SMILES: COc1cc(/C=C2\CCCN3C2=NOC[C@@H]3c2cc(F)c(F)c(F)c2)ccc1-n1cnc(C)c1
IC50 [4]: 1000 nM
Activity (Canis familiaris): Non-toxic
Activity (Rattus norvegicus [27]): Non-toxic
Activity (Rattus norvegicus [28]): Non-toxic
Activity (Rattus norvegicus [29]): Non-toxic
Activity (Rattus norvegicus [30]): Non-toxic
Activity (Rattus norvegicus [31]): Non-toxic
Activity (Rattus norvegicus [32]): 65%
Activity (Rattus norvegicus [33]): 74%
Activity (Rattus norvegicus [34]): 88%
Activity (Rattus norvegicus [35]): 63%
Activity (Rattus norvegicus [36]): 84%
Activity (Rattus norvegicus [37]): 32%
Activity (Rattus norvegicus [38]): 50%
Activity (Rattus norvegicus [39]): 86%
Activity (Cynomolgus monkey [40]): 44%
Activity (Cynomolgus monkey [41]): 70%
